Publication PMC8899467 (Frontiers in Pharmacology, 2022)

How the values were obtained:
bovine fibrinogen = biological target: T1, bovine fibrinogen (Bos taurus, UniProt P02672+P02676+P12799); experiment: intrinsic Trp fluorescence quenching; assay type: binding; conditions: 0.8 mg/ml fibrinogen, Tyrode buffer pH 7.4, 37 °C, 15 min
T1 construct: gene FGA; native plasma protein, Sigma-Aldrich; hexamer
T1 sequence (P02672 20-615): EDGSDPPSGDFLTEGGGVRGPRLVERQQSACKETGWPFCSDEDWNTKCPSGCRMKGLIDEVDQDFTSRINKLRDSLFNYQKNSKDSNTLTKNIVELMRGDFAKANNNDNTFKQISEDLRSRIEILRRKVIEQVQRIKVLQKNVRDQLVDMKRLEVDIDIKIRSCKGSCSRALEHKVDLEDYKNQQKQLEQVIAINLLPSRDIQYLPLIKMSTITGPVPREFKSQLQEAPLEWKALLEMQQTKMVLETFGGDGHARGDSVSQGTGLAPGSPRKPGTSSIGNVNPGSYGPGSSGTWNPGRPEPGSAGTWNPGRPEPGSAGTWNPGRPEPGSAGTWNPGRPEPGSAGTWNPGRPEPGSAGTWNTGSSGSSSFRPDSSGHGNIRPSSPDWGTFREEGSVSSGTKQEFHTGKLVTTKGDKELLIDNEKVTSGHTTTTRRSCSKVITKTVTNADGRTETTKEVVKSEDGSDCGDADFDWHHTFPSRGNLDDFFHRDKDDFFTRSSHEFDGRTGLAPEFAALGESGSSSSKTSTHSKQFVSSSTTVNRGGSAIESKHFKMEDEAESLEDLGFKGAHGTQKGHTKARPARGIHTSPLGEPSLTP
T1 sequence (P02676 1-468): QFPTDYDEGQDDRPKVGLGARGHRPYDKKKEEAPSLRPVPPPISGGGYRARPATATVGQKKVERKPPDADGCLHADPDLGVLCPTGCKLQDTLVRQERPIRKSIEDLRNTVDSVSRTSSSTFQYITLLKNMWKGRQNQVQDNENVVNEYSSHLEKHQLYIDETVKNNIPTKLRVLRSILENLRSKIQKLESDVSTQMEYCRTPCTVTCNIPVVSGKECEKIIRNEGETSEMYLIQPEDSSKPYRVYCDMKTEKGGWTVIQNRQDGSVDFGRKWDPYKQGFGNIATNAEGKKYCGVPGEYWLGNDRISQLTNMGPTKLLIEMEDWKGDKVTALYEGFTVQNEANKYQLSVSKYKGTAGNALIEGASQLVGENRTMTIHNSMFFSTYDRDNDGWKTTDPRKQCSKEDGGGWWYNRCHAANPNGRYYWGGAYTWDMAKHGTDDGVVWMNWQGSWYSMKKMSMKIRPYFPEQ
T1 sequence (P12799 25-444): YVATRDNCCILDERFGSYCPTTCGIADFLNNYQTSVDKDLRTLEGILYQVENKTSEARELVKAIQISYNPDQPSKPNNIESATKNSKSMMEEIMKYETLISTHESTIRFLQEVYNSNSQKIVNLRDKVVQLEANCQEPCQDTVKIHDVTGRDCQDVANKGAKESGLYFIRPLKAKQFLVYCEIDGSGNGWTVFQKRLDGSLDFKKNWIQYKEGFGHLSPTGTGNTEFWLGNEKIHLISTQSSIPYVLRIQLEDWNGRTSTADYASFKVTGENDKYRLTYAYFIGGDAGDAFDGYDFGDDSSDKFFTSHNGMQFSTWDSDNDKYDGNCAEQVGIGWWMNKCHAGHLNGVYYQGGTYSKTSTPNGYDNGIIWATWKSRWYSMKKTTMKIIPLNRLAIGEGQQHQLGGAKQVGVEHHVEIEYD

[1] = biological target: T2, bovine serum albumin (BSA) (Bos taurus, UniProt P02769); experiment: intrinsic Trp fluorescence quenching; assay type: binding; conditions: 0.8 mg/ml BSA, Tyrode buffer pH 7.4, 37 °C, 15 min
T2 construct: gene ALB; native mature serum albumin
T2 sequence (P02769 25-607): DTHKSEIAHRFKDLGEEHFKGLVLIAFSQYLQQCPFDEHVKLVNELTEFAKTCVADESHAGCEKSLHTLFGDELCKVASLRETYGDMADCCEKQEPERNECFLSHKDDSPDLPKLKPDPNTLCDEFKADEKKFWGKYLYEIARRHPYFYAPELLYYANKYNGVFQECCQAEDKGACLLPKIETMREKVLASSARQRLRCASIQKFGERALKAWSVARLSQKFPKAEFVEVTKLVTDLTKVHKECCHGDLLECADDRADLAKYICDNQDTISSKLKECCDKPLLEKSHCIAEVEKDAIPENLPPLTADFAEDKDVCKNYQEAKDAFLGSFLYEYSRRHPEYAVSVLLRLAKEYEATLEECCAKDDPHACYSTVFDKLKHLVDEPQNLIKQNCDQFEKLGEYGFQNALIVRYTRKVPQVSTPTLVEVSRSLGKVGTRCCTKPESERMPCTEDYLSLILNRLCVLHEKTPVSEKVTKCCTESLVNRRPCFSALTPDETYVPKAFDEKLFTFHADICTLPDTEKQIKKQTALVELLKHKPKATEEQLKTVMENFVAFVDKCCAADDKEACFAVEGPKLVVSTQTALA

C[C@@H]1O[C@@H](OC[C@H]2O[C@@H](Oc3c(-c4ccc(O)c(O)c4)oc4cc(O)cc(O)c4c3=O)[C@H](O)[C@@H](O)[C@@H]2O)[C@H](O)[C@H](O)[C@H]1O [rutin]
intrinsic Trp fluorescence quenching (bovine fibrinogen): Pre-incubation of rutin and RS with fibrinogen (Figures 6A,B) or albumin (Figures 6C,D) decreased the fluorescence
intrinsic Trp fluorescence quenching [1]: or albumin (Figures 6C,D) decreased the fluorescence of their Trp residues
